{"source": "ChEMBL document CHEMBL4823315", "about": "(Bioorg Med Chem Lett, 2021)", "key": {"[1]": {"test": "AUC in CD-1 mouse at 5 mg/kg, po", "format": "ADME, organism-based", "set-up": "dose 5 mg/kg", "conditions": "in vivo"}, "[2]": {"test": "AUC in Beagle dog at 0.5 mg/kg, po", "format": "ADME, organism-based, Canis lupus familiaris", "set-up": "dose 0.5 mg/kg", "conditions": "in vivo"}, "[3]": {"test": "Toxicity in mouse xenografted with human MDA-MB-436 cells assessed as loss of body weight at 200 mg/kg, po administered qd measured after 15 days", "format": "organism-based", "conditions": "in vivo, 360 h, time 15 day"}, "[4]": {"test": "Half life in cynomolgus monkey at 0.5 mg/kg, po or 0.2 mg/kg, iv", "format": "ADME, organism-based, Macaca fascicularis", "conditions": "in vivo"}, "[5]": {"molecular_target": "Cytochrome P450 3A4 (Homo sapiens, UniProt P08684)", "sequence (P08684 whole entry)": "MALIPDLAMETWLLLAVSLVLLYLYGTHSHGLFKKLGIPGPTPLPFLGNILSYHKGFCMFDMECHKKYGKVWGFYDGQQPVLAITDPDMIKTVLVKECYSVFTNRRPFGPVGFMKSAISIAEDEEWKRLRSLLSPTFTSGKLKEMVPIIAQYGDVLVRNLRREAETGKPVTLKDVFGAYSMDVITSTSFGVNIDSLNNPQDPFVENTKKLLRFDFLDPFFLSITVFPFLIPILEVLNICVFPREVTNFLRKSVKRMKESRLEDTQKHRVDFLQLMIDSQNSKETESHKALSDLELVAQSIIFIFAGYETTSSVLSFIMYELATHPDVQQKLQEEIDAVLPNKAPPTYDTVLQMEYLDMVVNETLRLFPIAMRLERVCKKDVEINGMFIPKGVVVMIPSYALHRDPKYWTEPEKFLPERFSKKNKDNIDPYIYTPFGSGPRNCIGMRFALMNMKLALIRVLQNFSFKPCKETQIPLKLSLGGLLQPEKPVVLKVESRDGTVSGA", "test": "Inhibition of CYP3A4 (unknown origin)", "format": "ADME"}, "[6]": {"test_system": "MDA-MB-436", "test": "Antitumor activity against human MDA-MB-436 cells xenografted in mouse assessed as tumor growth inhibition at 25 mg/kg, po qd and measured for 28 days", "format": "functional", "conditions": "MDA-MB-436, po, 672 h, time 28 day, read-out: TGI"}, "[7]": {"test": "AUC in CD-1 mouse at 5 mg/kg, iv", "format": "ADME, organism-based", "set-up": "dose 5 mg/kg", "conditions": "in vivo"}, "[8]": {"test": "Efflux ratio of apparent permeability in human Caco-2 cells", "format": "ADME, cell-based"}, "[9]": {"test": "Oral bioavailability in Sprague-Dawley rat at 5 mg/kg", "format": "ADME, organism-based", "conditions": "in vivo"}, "[10]": {"test": "AUC in Sprague-Dawley rat at 5 mg/kg, po", "format": "ADME, organism-based", "set-up": "dose 5 mg/kg", "conditions": "in vivo"}, "[11]": {"test_system": "MDA-MB-436", "test": "Antitumor activity against human MDA-MB-436 cells xenografted in mouse assessed as tumor growth inhibition at 75 mg/kg, po qd and measured for 28 days", "format": "functional", "conditions": "MDA-MB-436, po, 672 h, time 28 day, read-out: TGI"}, "[12]": {"test": "Cmax in cynomolgus monkey at 0.5 mg/kg, po", "format": "ADME, organism-based, Macaca fascicularis", "set-up": "route oral, dose 0.5 mg/kg", "conditions": "in vivo"}, "[13]": {"molecular_target": "Cytochrome P450 2C9 (Homo sapiens, UniProt P11712)", "sequence (P11712 whole entry)": "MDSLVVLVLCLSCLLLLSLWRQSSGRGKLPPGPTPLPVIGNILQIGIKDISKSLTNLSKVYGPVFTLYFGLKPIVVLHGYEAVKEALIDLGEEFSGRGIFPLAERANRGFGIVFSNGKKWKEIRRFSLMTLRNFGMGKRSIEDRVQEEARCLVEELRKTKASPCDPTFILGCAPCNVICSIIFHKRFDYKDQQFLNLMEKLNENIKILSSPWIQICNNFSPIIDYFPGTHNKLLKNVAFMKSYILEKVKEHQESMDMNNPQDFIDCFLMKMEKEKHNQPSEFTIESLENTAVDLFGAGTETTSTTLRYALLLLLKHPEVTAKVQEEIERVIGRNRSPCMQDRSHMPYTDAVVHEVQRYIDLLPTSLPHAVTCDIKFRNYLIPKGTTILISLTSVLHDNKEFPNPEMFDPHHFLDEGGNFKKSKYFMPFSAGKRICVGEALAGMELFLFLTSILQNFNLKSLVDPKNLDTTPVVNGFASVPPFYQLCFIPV", "test": "Inhibition of CYP2C9 (unknown origin)", "format": "ADME"}, "[14]": {"test": "In vivo Inhibition of Akt/p70S6K in mouse xenografted with human MDA-MB-436 cells assessed as reduction in S6 phosphorylation in tumor at 25 to 200 mg/kg, po measured after 4 to 8 hrs", "format": "functional", "conditions": "dose 25-200 mg/kg, time 4-8 hrs"}, "[15]": {"test": "Protein binding in human plasma assessed as unbound fraction", "format": "ADME, cell-free"}, "[16]": {"test": "Thermodynamic solubility of the compound at pH 1.2", "format": "physicochemical", "conditions": "buffer, read-out: Therm_solubility"}, "[17]": {"test": "Inhibition of p70S6K (unknown origin)", "set-up": "species or system Homo sapiens"}, "[18]": {"test": "Cmax in Beagle dog at 0.5 mg/kg, po", "format": "ADME, organism-based, Canis lupus familiaris", "set-up": "route oral, dose 0.5 mg/kg", "conditions": "in vivo"}, "[19]": {"test": "In vivo Inhibition of Akt/p70S6K in mouse xenografted with human MDA-MB-436 cells assessed as reduction in S6 phosphorylation in tumor at 200 mg/kg, po measured after 24 hrs", "format": "functional", "conditions": "MDA-MB-436, po"}, "[20]": {"test": "Half life in Sprague-Dawley rat at 5 mg/kg, po or 5 mg/kg, iv", "format": "ADME, organism-based", "conditions": "in vivo"}, "[21]": {"test": "Oral bioavailability in CD-1 mouse at 5 mg/kg", "format": "ADME, organism-based", "conditions": "in vivo"}, "[22]": {"test": "Cmax in Sprague-Dawley rat at 5 mg/kg, po", "format": "ADME, organism-based", "set-up": "route oral, dose 5 mg/kg", "conditions": "in vivo"}, "[23]": {"test": "Half life in Beagle dog at 0.5 mg/kg, po or 0.2 mg/kg, iv", "format": "ADME, organism-based, Canis lupus familiaris", "conditions": "in vivo"}, "[24]": {"test": "Half life in CD-1 mouse at 5 mg/kg, po or 5 mg/kg, iv", "format": "ADME, organism-based", "conditions": "in vivo"}, "[25]": {"molecular_target": "T1, Cytochrome P450 1A2 (Homo sapiens, UniProt P05177)", "T1 sequence (P05177 whole entry)": "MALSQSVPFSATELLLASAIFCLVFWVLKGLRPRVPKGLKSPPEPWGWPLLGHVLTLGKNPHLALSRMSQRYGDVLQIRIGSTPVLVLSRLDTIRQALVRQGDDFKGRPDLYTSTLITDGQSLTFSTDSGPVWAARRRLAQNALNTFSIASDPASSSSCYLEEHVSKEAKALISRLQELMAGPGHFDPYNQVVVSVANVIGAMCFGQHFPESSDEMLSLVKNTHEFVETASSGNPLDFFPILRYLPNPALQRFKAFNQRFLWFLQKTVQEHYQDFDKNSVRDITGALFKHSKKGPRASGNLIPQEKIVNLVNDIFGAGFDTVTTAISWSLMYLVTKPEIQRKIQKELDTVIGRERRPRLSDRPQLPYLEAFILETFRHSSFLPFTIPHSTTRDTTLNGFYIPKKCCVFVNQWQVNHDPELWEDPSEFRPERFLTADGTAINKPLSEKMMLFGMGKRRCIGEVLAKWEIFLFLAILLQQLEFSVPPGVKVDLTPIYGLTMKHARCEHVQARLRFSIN", "test": "Inhibition of CYP1A2 (unknown origin)", "format": "ADME"}, "[26]": {"test": "Intrinsic clearance in human liver microsomes", "format": "ADME, Microsome", "conditions": "read-out: CLH"}, "[27]": {"test": "Protein binding in mouse plasma assessed as unbound fraction", "format": "ADME, cell-free"}, "[28]": {"test": "Cmax in CD-1 mouse at 5 mg/kg, po", "format": "ADME, organism-based", "set-up": "route oral, dose 5 mg/kg", "conditions": "in vivo"}, "[29]": {"test": "Clearance in Beagle dog at 0.5 mg/kg, po or 0.2 mg/kg, iv", "format": "ADME, organism-based, Canis lupus familiaris", "conditions": "in vivo"}, "[30]": {"test": "Intrinsic clearance in mouse liver microsomes", "format": "ADME, Microsome", "conditions": "read-out: CLH"}, "[31]": {"molecular_target": "Cytochrome P450 2D6 (Homo sapiens, UniProt P10635)", "sequence (P10635 whole entry)": "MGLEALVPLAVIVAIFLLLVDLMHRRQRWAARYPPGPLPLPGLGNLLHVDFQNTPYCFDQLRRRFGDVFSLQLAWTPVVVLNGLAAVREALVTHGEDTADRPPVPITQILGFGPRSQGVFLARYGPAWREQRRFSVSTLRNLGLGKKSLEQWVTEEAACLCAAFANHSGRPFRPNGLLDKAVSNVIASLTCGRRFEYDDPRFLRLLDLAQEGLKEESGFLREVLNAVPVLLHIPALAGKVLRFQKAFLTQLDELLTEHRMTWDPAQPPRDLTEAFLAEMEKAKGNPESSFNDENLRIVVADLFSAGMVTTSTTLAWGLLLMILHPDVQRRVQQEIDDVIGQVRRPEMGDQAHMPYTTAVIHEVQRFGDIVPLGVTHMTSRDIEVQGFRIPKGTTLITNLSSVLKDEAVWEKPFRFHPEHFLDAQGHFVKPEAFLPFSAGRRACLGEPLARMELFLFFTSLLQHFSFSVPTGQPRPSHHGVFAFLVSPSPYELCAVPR", "test": "Inhibition of CYP2D6 (unknown origin)", "format": "ADME"}, "[32]": {"test": "Clearance in cynomolgus monkey at 0.5 mg/kg, po or 0.2 mg/kg, iv", "format": "ADME, organism-based, Macaca fascicularis", "conditions": "in vivo"}, "[33]": {"test": "Oral bioavailability in Beagle dog at 0.5 mg/kg", "format": "ADME, organism-based, Canis lupus familiaris", "conditions": "in vivo"}, "[34]": {"test": "Clearance in CD-1 mouse at 5 mg/kg, po or 5 mg/kg, iv", "format": "ADME, organism-based", "conditions": "in vivo"}, "[35]": {"molecular_target": "Serine/threonine-protein kinase AKT (Homo sapiens, UniProt P31751+Q9Y243+P31749)", "test": "Inhibition of Akt (unknown origin)", "format": "protein assay"}, "[36]": {"test": "Cmax in CD-1 mouse at 5 mg/kg, iv", "format": "ADME, organism-based", "set-up": "route intravenous, dose 5 mg/kg", "conditions": "in vivo"}, "[37]": {"test": "Oral bioavailability in cynomolgus monkey at 0.5 mg/kg", "format": "ADME, organism-based, Macaca fascicularis", "conditions": "in vivo"}, "[38]": {"test": "In vivo Inhibition of Akt/p70S6K in mouse xenografted with human MDA-MB-436 cells assessed as reduction in S6 phosphorylation in tumor at 75 mg/kg, po measured after 24 hrs", "format": "functional", "conditions": "MDA-MB-436, po"}, "[39]": {"molecular_target": "T2, Cytochrome P450 2C8 (Homo sapiens, UniProt P10632)", "T2 sequence (P10632 whole entry)": "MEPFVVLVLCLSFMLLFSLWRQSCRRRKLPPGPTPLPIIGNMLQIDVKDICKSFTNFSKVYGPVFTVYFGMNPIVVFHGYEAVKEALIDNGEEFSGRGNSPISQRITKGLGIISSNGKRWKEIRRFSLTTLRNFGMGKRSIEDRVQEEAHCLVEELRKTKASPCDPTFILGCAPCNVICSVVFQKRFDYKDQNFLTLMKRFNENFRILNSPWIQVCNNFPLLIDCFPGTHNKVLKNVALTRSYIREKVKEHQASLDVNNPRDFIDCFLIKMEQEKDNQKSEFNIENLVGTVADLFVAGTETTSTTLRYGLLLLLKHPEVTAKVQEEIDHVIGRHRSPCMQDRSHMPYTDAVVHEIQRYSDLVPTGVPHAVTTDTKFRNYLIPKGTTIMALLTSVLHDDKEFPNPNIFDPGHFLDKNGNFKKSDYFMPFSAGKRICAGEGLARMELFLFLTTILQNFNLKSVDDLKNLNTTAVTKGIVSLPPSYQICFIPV", "test": "Inhibition of CYP2C8 (unknown origin)", "format": "ADME"}}, "data": [{"smiles": "NC(=O)c1c(N)ncnc1N1CCC(c2nc(-c3ccc(F)c(C(F)(F)F)c3)cn2CCN2CCC2)CC1", "values": [{"measurement": "AUC", "setting": "[1]", "value": 417, "unit": "ng·h/mL"}, {"measurement": "AUC", "setting": "[2]", "value": 2370, "unit": "ng·h/mL"}, {"measurement": "Activity", "setting": "[3]", "value": "> 5", "unit": "%"}, {"measurement": "half-life", "setting": "[4]", "value": 4, "unit": "h"}, {"measurement": "IC50", "setting": "[5]", "value": "> 20", "unit": "µM"}, {"measurement": "inhibition in vivo at 25 mg/kg", "setting": "[6]", "value": 81, "unit": "%"}, {"measurement": "AUC", "setting": "[7]", "value": 662, "unit": "ng·h/mL"}, {"measurement": "efflux ratio", "setting": "[8]", "value": 7.9}, {"measurement": "bioavailability", "setting": "[9]", "value": 17, "unit": "%"}, {"measurement": "AUC", "setting": "[10]", "value": 43.4, "unit": "ng·h/mL"}, {"measurement": "inhibition in vivo at 75 mg/kg", "setting": "[11]", "value": 100, "unit": "%"}, {"measurement": "Cmax", "setting": "[12]", "value": 9.7, "unit": "ng/mL"}, {"measurement": "IC50", "setting": "[13]", "value": "> 20", "unit": "µM"}, {"measurement": "inhibition (INH)", "setting": "[14]", "value": ">95", "unit": "%"}, {"measurement": "fraction unbound", "setting": "[15]", "value": 0.21}, {"measurement": "solubility thermodynamic", "setting": "[16]", "value": 2960, "unit": "µg/mL"}, {"measurement": "IC50", "setting": "[17]", "value": 0.003, "unit": "µM"}, {"measurement": "Cmax", "setting": "[18]", "value": 67.8, "unit": "ng/mL"}, {"measurement": "inhibition in vivo at 200 mg/kg", "setting": "[19]", "value": 92, "unit": "%"}, {"measurement": "half-life", "setting": "[20]", "value": 1.5, "unit": "h"}, {"measurement": "bioavailability", "setting": "[21]", "value": 63, "unit": "%"}, {"measurement": "Cmax", "setting": "[22]", "value": 13, "unit": "ng/mL"}, {"measurement": "half-life", "setting": "[23]", "value": 19, "unit": "h"}, {"measurement": "half-life", "setting": "[24]", "value": 9.3, "unit": "h"}, {"measurement": "IC50", "setting": "[25]", "value": "> 20", "unit": "µM"}, {"measurement": "microsomal CLint", "setting": "[26]", "value": 46, "unit": "µL/min/mg"}, {"measurement": "fraction unbound", "setting": "[27]", "value": 0.21}, {"measurement": "Cmax", "setting": "[28]", "value": 57, "unit": "ng/mL"}, {"measurement": "clearance", "setting": "[29]", "value": 4.67, "unit": "mL/min/kg"}, {"measurement": "microsomal CLint", "setting": "[30]", "value": 11, "unit": "µL/min/mg"}, {"measurement": "IC50", "setting": "[31]", "value": "> 20", "unit": "µM"}, {"measurement": "clearance", "setting": "[32]", "value": 42.8, "unit": "mL/min/kg"}, {"measurement": "bioavailability", "setting": "[33]", "value": 65, "unit": "%"}, {"measurement": "clearance", "setting": "[34]", "value": 25, "unit": "mL/min/kg"}, {"measurement": "IC50", "setting": "[35]", "value": 0.016, "unit": "µM"}, {"measurement": "Cmax", "setting": "[36]", "value": 163, "unit": "ng/mL"}, {"measurement": "bioavailability", "setting": "[37]", "value": 23, "unit": "%"}, {"measurement": "inhibition in vivo at 75 mg/kg", "setting": "[38]", "value": 87, "unit": "%"}, {"measurement": "IC50", "setting": "[39]", "value": "> 20", "unit": "µM"}]}]}
